Experimental data published in patent US20210252036A1, “METHODS OF TREATING CANCER BY INHIBITING UBIQUITIN CONJUGATING ENZYME E2 K (UBE2K)” (Berg LLC, priority 2018, published 2021).
Where two headings read alike, the source gives them in different places.

Key:
UBE2K = target: T1, UBE2K (Homo sapiens, UniProt P61086); conditions: Strickson et al., 2013; cited from earlier work
T1 sequence (P61086 1-200): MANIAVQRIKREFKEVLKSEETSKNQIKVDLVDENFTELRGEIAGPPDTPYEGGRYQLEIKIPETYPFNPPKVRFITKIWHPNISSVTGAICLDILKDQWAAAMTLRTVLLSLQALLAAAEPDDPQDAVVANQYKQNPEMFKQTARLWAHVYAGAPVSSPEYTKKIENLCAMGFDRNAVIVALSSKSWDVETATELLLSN

BT549 cells = assay: Cell number/viability by Cell Titer Fluor after siRNA transfection; format: cell-based; conditions: Homo sapiens, BT-549, doxorubicin 72 h
Experimental: (§1) For initial validation studies, UBE2K was transiently knocked down using an siRNA mediated approach in Miapaca2, HepG2, SKHEP1, Hep3B, MDAMB231, SKBR3, T47D and BT549 cells. A non-targeting (NT) siRNA sequence was used as a control. Samples for confirmation of knock down at transcript and protein level were harvested 24 and 96 h post transfection, and the effect of UBE2K transient knock down was assessed on cell viability/cell number using Cell Titer Fluor at 96 h post transfection. In parallel, the effect of siRNA mediated UBE2K knock down on doxorubicin (cell death causing agent) sensitivity was assessed in the above mentioned cell lines. Cell were exposed to doxorubicin for 72 h beginning 24 h post transfection.

[1] = system: SKHEP1 hepatocellular carcinoma cells; assay: as above; format: cell-based; conditions: Homo sapiens, SK-HEP1, doxorubicin 72 h
Experimental: as §1

T47D cells = assay: as above; format: cell-based; conditions: Homo sapiens, doxorubicin 72 h
Experimental: as §1

Cc1ccc(S(=O)(=O)/C=C/C#N)cc1 [BAY 11-7082, (E)3-[(4-Methylphenyl)sulfonyl]-2-propenenitrile]
Loading of ubiquitin onto E2 conjugating enzymes such as UBE2K (UBE2K): inhibit the loading of ubiquitin onto E2 conjugating enzymes

COc1cccc2c1C(=O)c1c(O)c3c(c(O)c1C2=O)C[C@@](O)(C(=O)CO)C[C@@H]3O[C@H]1C[C@H](N)[C@H](O)[C@H](C)O1 [doxorubicin]
IC50 (BT549 cells; BT549, UBE2K siRNA knockdown, read-out: UBE2K siRNA 95% CI IC50): 91.2 to 243 nM | IC50 (BT549 cells; BT549, control siRNA, read-out: Control siRNA 95% CI KSO): 165 to 381 nM | IC50 ([1]; SKHEP1, UBE2K siRNA knockdown, read-out: UBE2K siRNA 95% CI IC50): 10.1 to 13.7 nM | IC50 ([1]; SKHEP1, control siRNA, read-out: Control siRNA 95% CI KSO): 8.58 to 11.3 nM | IC50 (T47D cells; UBE2K siRNA knockdown, read-out: UBE2K siRNA 95% CI IC50): 96.1 to 220 nM | IC50 (T47D cells; control siRNA, read-out: Control siRNA 95% CI KSO): 112 to 290 nM
